For 33 compounds, IC50 and inhibition results are on record in PubChem BioAssay AID850 (SRMLSC, 2007).

Experiment [1] has as its system Saccharomyces cerevisiae growth inhibition, permissive control. Description: concentration-response yeast growth inhibition under permissive conditions, counter-assay for yeast lifespan-shortening chemical project (AID 850).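 Note: growth read as optical density after one day of incubation.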
Assay in experiment [2]: as above
The note with it: Saccharomyces cerevisiae growth inhibition, permissive control, measured here: maximum growth inhibition, stronger effect = higher value.

Active and inactive are the calls of the source. The rule behind the calls is not given here. Some results are limits rather than exact numbers.

Take `O=C(CSC1=NCCS1)N1CCN(c2ccc(Cl)cc2)CC1`: the IC50 in experiment [1] is > 100 µM (inactive). In addition, in experiment [2] (at 50 µM), the inhibition came out at 20.7%.
For `COc1ccc(-c2cc(C(=O)N3CCN(c4ncccn4)CC3)c3ccccc3n2)c(OC)c1`, in experiment [1], the IC50 is > 100 µM (inactive). Also, the inhibition in experiment [2] (at 12.5 µM) came to 23.4%.
For `O=C(O)CCn1cc(/C=C/C(=O)c2ccc(Cl)cc2)c(-c2ccc(Br)cc2)n1` the same measures were > 100 µM (inactive) and 15.3%.
Turning to `S=C1SCN(Cc2ccccn2)CN1Cc1ccco1`, the IC50 in experiment [1] was 43.4 µM. For the same compound, in experiment [2] (at 50 µM), the inhibition amounted to 55.7%.
For the compound `CC1CCN(c2nc(/C=C/c3ccccc3)nc3ccccc23)CC1`, in experiment [1], the concentration for half-maximal inhibition (IC50) was 22.2 µM. For the same compound, the inhibition in experiment [2] (at 50 µM) came out at 100%.
`COC(=O)c1ccc(CSc2ccc3nnc(-c4cccc(F)c4)n3n2)o1`: the IC50 in experiment [1] is > 100 µM (inactive). The inhibition in experiment [2] (at 6.25 µM) came to 17.7%.
On to `C=C(C)COc1ccc(-c2[nH]ncc2Oc2ccccc2OC)c(O)c1`, for which the IC50 in experiment [1] is > 100 µM (inactive). Moreover, the inhibition in experiment [2] (at 1.563 µM) is -1.35%.
Take `C=CCn1c(C)cc(C(=O)CSc2nnc(NCc3ccccc3)s2)c1C`: the IC50 in experiment [1] is > 100 µM (inactive). In experiment [2] (at 50 µM), the inhibition stood at 22.4%.
For `Oc1c(N=Nc2ccccn2)ccc2ccccc12`, the IC50 in experiment [1] was 11.5 µM. Moreover, the inhibition in experiment [2] (at 25 µM) was determined as 98.2%.
On to `Cc1cc(C(=O)COC(=O)c2ccc[nH]c2=O)c(C)n1-c1ccccc1`, for which the IC50 in experiment [1] was 26.9 µM. For the same compound, in experiment [2] (at 50 µM), the inhibition was found to be 67.1%.
Consider `CCOc1ccc(N/N=C(/C#N)C(N)=O)cc1`, for which, in experiment [1], the IC50 is 11 µM. Also, the inhibition in experiment [2] (at 50 µM) amounted to 87.7%.
`O=C1c2ccccc2C(=O)N1Cc1ccco1`: in experiment [1], the IC50 was > 100 µM (inactive). Moreover, the inhibition in experiment [2] (at 25 µM) is 8.88%.
On to `COc1ccc(CNC(=O)CSc2nnc(-c3ccc(NC(C)=O)cc3)n2C)cc1`, for which the IC50 in experiment [1] was > 100 µM (inactive). Besides, the inhibition in experiment [2] (at 3.125 µM) was found to be 26.8%.
Turning to `CN1C(=O)c2cccc3c(Cl)ccc(c23)C1=O`, the IC50 in experiment [1] was > 100 µM (inactive). Besides, the inhibition in experiment [2] (at 50 µM) worked out at 19.1%.
For `Cc1ccc(C(=O)OCn2ncc(Cl)c(Cl)c2=O)cc1` the same measures were 36.4 µM and 85.2%.
Consider `O=C1OCC(CO)(CO)N=C1NNc1cc(Cl)ccc1Cl`, for which the IC50 in experiment [1] is 11.4 µM. Moreover, in experiment [2] (at 50 µM), the inhibition turned out to be 99.2%.
For `NC(N)=N/N=C/c1ccc(OCc2ccc(Cl)cc2Cl)cc1`, the half-maximal inhibitory concentration (IC50) in experiment [1] is 28.1 µM. The inhibition in experiment [2] (at 50 µM) amounted to 101%.
The corresponding values for `Cc1cc(C)c2c(N=NN3CCOCC3)[nH]nc2n1` are > 100 µM (inactive) and 5.41%.
As to `O=C1NC(c2ccccn2)Nc2sc3c(c21)CCC3` (stereo unspecified), the IC50 in experiment [1] is > 100 µM (inactive). Also, the inhibition in experiment [2] (at 0.195 µM) turned out to be 25.5%.
For `CCN1/C(=C/c2ccc3ccc(C)cc3[n+]2CC)Sc2ccccc21`, the IC50 in experiment [1] is 21.7 µM. In experiment [2] (at 50 µM), the inhibition was found to be 92.9%.
For `OC(CNCCC1C=Nc2ccccc21)Cn1c2ccc(Cl)cc2c2cc(Cl)ccc21` (stereo unspecified) the same measures were 18.4 µM and 100%.
As to `CC(C)(C)c1ccc(-c2nc(-c3ccncc3)no2)cc1`, in experiment [1], the IC50 was 47 µM. For the same compound, in experiment [2] (at 50 µM), the inhibition was determined as 48.7%.
For `Cc1c(N=Cc2cc(Br)cc(Br)c2O)cccc1C(=O)O` the same measures were 6.96 µM and 99%.
The corresponding values for `COc1ccc(C(=O)C(C)(C)NO)cc1` are 46.8 µM and 50.7%.
Consider `CCn1c(Sc2nc(C)nc3scc(-c4cccs4)c23)n[nH]c1=O`, for which, in experiment [1], the IC50 is 22.9 µM. Further, in experiment [2] (at 25 µM), the inhibition turned out to be 55.1%.
Take `COc1ccc(-c2nnc3c4ccccc4c(C)nn23)cc1`: the IC50 in experiment [1] was > 100 µM (inactive). For the same compound, the inhibition in experiment [2] (at 1.563 µM) is 11.6%.
Consider `CCCCS(=O)(=O)/C=C\C=C/S(=O)(=O)CCCC`, for which the IC50 in experiment [1] is > 100 µM (inactive). Moreover, the inhibition in experiment [2] (at 6.25 µM) came to 21.2%.
With `OCc1ccnc2c(O)cccc12`, in experiment [1], the half-maximal inhibitory concentration (IC50) is 50.6 µM. For the same compound, the inhibition in experiment [2] (at 50 µM) was determined as 44.1%.
As to `Cc1ccc(C(C[N+](=O)[O-])n2nc(C)cc2C)cc1` (stereo unspecified), the 50% inhibitory concentration (IC50) in experiment [1] is 13 µM. Moreover, in experiment [2] (at 50 µM), the inhibition was 99.2%.
For `COc1ccc(-c2[nH]ncc2-c2ccc(Cl)cc2)c(O)c1`, the IC50 in experiment [1] was > 100 µM (inactive). In addition, the inhibition in experiment [2] (at 0.781 µM) came out at 14.4%.
Regarding `CCS(=O)(=O)n1nc(-c2ccc(Cl)cc2)nc1SCc1ccccc1`, the IC50 in experiment [1] is > 100 µM (inactive). Further, the inhibition in experiment [2] (at 50 µM) turned out to be 15%.
On to `CCc1ccc(S(=O)(=O)NCCc2cn3ccsc3n2)s1`, for which the IC50 in experiment [1] is > 100 µM (inactive). Moreover, in experiment [2] (at 25 µM), the inhibition was found to be 10.4%.
On to `Cc1ccccc1C(=O)NNC(=S)NC(=O)COc1ccccc1`, for which, in experiment [1], the half-inhibitory concentration (IC50) was 26.5 µM. In addition, in experiment [2] (at 50 µM), the inhibition was determined as 73.9%.

Broadly, the IC50 is the concentration that inhibits the measured activity by half. In general, inhibition refers to the drop in the measured response relative to a control, in per cent.
